Test results from US11161818B2, “Quinolone derivatives, preparation methods and application thereof” (Hangzhou Normal University, priority 2019, dated 2021).
Where a name gives a salt, the structure may show the parent alone. One block for each compound: values may come before it.

Columns and labels:
S. aureus = assay: Bactericidal activity test, filter paper inhibition zone; assay type: cell-based, Staphylococcus aureus; conditions: filter paper diameter 6 mm, 37° C., 24 hours; for S. aureus inhibition zone: sample concentration 10 mg/mL
Procedure: (§1) In order to determine the practicability of the compounds synthesized in this patent, some of the compounds are selected as representatives, and the bactericidal activity is determined by conventional methods. The specific operation procedures are as follows:
(§2) In a super clean bench, the preserved strains are transferred to a slant tube, cultured in an incubator at 37° C. for 24 hours, and then taken out and preserved at low temperature for antibacterial experiments. The well-grown colonies are scraped and transferred into a liquid medium with the inoculation ring, shaken to give a uniform mixture, and cultured in the incubator at 37° C. for 24 hours. The culture medium is poured into plates, about 15 ml for each plate, which are placed horizontally, and after solidification, placed upside down into the incubator at 37° C.; after two days, it is observed whether there is colony growth. If not, it can be used for the next experiment, otherwise, the plate needs to be poured again. 0.5 ml of bacterial suspension is pipetted into the plate, which is left to stand still for about 5 minutes, and then spread evenly with a coating rod; two duplicate plates are set for each kind of bacteria. In the super clean bench, the plates are divided equally and parallel groups are set. Each piece of filter paper (6 mm in diameter) is a paste. The filter paper is picked up with tweezers, dipped into a sample, taken out, placed at a given position of the plate, and gently pressed to make the filter paper firmly adhered thereto. The plate is placed (upside down) in the incubator for culture; the temperature is set at 37° C.; and after 24 hours culture, the plate is observed and the results are recorded.

E. coli = assay: as above; assay type: cell-based; conditions: filter paper diameter 6 mm, 37° C., 24 hours; for E. coli activity inhibition zone: sample concentration 10 mg/mL
Procedure: as §1, §2

[1] = tested on: MRSA (methicillin-resistant Staphylococcus aureus); assay: as above; assay type: cell-based; conditions: filter paper diameter 6 mm, 37° C., 24 hours; for MRSA inhibition zone: sample concentration 10 mg/mL
Procedure: as §1, §2

B. subtilis = assay: as above; assay type: cell-based, Bacillus subtilis; conditions: filter paper diameter 6 mm, 37° C., 24 hours; for B. subtilis inhibition zone: sample concentration 10 mg/mL
Procedure: as §1, §2

lung cancer cells (A549) = assay: Anti-tumor activity test, MTT method; assay type: cell-based; conditions: concentration 0.5 mg/ml (DMSO as solvent), 44 + 4 hours culture
Procedure: (§3) For the anti-tumor activity test of these compounds, three kinds of common tumor cells are taken as research subjects: non-small cell lung cancer cells (HCC827), lung cancer cells (A549) and liver cancer cells (HepG2). Under the action of the new quinolone derivatives, the growth of the cells is observed, and the proliferation of tumor cells is measured by MTT method. The specific operation is as follows: the tumor cells are inoculated into 96-well culture plate in a particular amount of cells, with a cell density of 2×10^4 cells/ml; after overnight in the incubator with a concentration of 5% CO2 at 37° C., the screened samples are added (reference can be made to Table 1 for sample concentration; 10 μL/well of corresponding concentration of drugs are added to the dosing group, while 10 μL/well of PBS are added to the control group). After 44 hours of culture, 10 μL/well of MTT are added to continue the culture for 4 hours, which is dissolved with DMSO, shaken, and detected with a 570 nm enzyme-labeled instrument.

[2] = tested on: non-small cell lung cancer cells (HCC827); assay: Anti-tumor activity test, MTT method; assay type: cell-based; conditions: concentration 0.5 mg/ml (DMSO as solvent), 44 + 4 hours culture
Procedure: as §3

[3] = tested on: liver cancer cells (HepG2); assay: Anti-tumor activity test, MTT method; assay type: cell-based, human; conditions: concentration 0.5 mg/ml (DMSO as solvent), 44 + 4 hours culture
Procedure: as §3

Compound: CCOC(=O)c1cn(-c2ccc(Oc3ccc(Cl)cc3)cc2)c2cc(Cl)c(F)cc2c1=O [Compound I-3, ethyl 7-chloro-1-(4-(4-chlorophenoxy)phenyl)-6-fluoro-4-oxy-1,4-dihydroquinoline-3-carboxylate]
- S. aureus inhibition zone (S. aureus): 20 mm
- E. coli activity inhibition zone (E. coli): 24 mm
- MRSA inhibition zone [1]: 8 mm
- B. subtilis inhibition zone (B. subtilis): 18 mm
- IC50 (lung cancer cells (A549)): > 10 µM
- IC50 [2]: 4.5 µM
- IC50 [3]: 7.5 µM

Compound: CCOC(=O)c1cn(-c2ccc(Oc3ccccc3)cc2)c2cc(Cl)c(F)cc2c1=O [Compound I-4, ethyl 7-chloro-6-fluoro-4-oxy-1-(4-phenoxyphenyl)-1,4-dihydroquinoline-3-carboxylate]
- S. aureus inhibition zone (S. aureus): 19 mm
- E. coli activity inhibition zone (E. coli): 27 mm
- MRSA inhibition zone [1]: 9 mm
- B. subtilis inhibition zone (B. subtilis): 23 mm

Compound: CCOC(=O)c1cn(-c2ccc(Oc3ccc(F)cc3)cc2)c2cc(Cl)c(F)cc2c1=O [Compound I-7, ethyl 7-chloro-6-fluoro-1-(4-(4-fluorophenoxy)phenyl)-4-oxy-1,4-dihydroquinoline-3-carboxylate]
- S. aureus inhibition zone (S. aureus): 15 mm
- E. coli activity inhibition zone (E. coli): 17 mm
- MRSA inhibition zone [1]: 7 mm
- B. subtilis inhibition zone (B. subtilis): 13 mm

Compound: CCOC(=O)c1cn(-c2ccc(Oc3ccc(C)cc3)cc2)c2cc(Cl)c(F)cc2c1=O [Compound I-8, ethyl 7-chloro-6-fluoro-1-(4-(4-toluoxy)phenyl)-4-oxy-1,4-dihydroquinoline-3-carboxylate]
- S. aureus inhibition zone (S. aureus): 13 mm
- E. coli activity inhibition zone (E. coli): 12 mm
- MRSA inhibition zone [1]: 10 mm
- B. subtilis inhibition zone (B. subtilis): 12 mm

Compound: CCOC(=O)c1cn(-c2ccc(Oc3ccc(C(C)(C)C)cc3)cc2)c2cc(Cl)c(F)cc2c1=O [Compound I-10, ethyl 7-chloro-6-fluoro-1-(4-(4-tert-butylphenoxy)phenyl)-4-oxy-1,4-dihydroquinoline-3-carboxylate]
- S. aureus inhibition zone (S. aureus): 20 mm
- E. coli activity inhibition zone (E. coli): 24 mm
- MRSA inhibition zone [1]: 14 mm
- B. subtilis inhibition zone (B. subtilis): 20 mm

Compound: CCOC(=O)c1cn(-c2ccc(Oc3ccc(OC)cc3)cc2)c2cc(Cl)c(F)cc2c1=O [Compound I-11, ethyl 7-chloro-6-fluoro-1-(4-(4-methoxyphenoxy)phenyl)-4-oxy-1,4-dihydroquinoline-3-carboxylate]
- S. aureus inhibition zone (S. aureus): 11 mm
- E. coli activity inhibition zone (E. coli): 22 mm
- MRSA inhibition zone [1]: 7 mm
- B. subtilis inhibition zone (B. subtilis): 13 mm

Compound: CCOC(=O)c1cn(-c2ccc(Oc3ccc(OC(F)(F)F)cc3)cc2)c2cc(Cl)c(F)cc2c1=O [Compound I-12, ethyl 7-chloro-6-fluoro-1-(4-(4-trifluoromethoxyphenoxy)phenyl)-4-oxy-1,4-dihydroquinoline-3-carboxylate]
- S. aureus inhibition zone (S. aureus): 24 mm
- E. coli activity inhibition zone (E. coli): 28 mm
- MRSA inhibition zone [1]: 8 mm
- B. subtilis inhibition zone (B. subtilis): 8 mm
- IC50 (lung cancer cells (A549)): > 10 µM
- IC50 [2]: > 10 µM
- IC50 [3]: 8.5 µM

Compound: CCOC(=O)c1cn(-c2ccc(Oc3ccc(C(F)(F)F)cc3)cc2)c2cc(Cl)c(F)cc2c1=O [Compound I-14, ethyl 7-chloro-6-fluoro-1-(4-(4-trifluoromethylphenoxy)phenyl)-4-oxy-1,4-dihydroquinoline-3-carboxylate]
- S. aureus inhibition zone (S. aureus): 20 mm
- E. coli activity inhibition zone (E. coli): 27 mm
- MRSA inhibition zone [1]: 12 mm
- B. subtilis inhibition zone (B. subtilis): 15 mm

Compound: CCOC(=O)c1cn(-c2ccc(Oc3ccc(Cl)c(Cl)c3)cc2)c2cc(Cl)c(F)cc2c1=O [Compound I-15, ethyl 7-chloro-1-(4-(3,4-dichlorophenoxy)phenyl)-6-fluoro-4-oxy-1,4-dihydroquinoline-3-carboxylate]
- S. aureus inhibition zone (S. aureus): 20 mm
- E. coli activity inhibition zone (E. coli): 21 mm
- MRSA inhibition zone [1]: 9 mm
- B. subtilis inhibition zone (B. subtilis): 18 mm

Compound: CCOC(=O)c1cn(-c2ccc(Oc3ccc(C)c(C)c3)cc2)c2cc(Cl)c(F)cc2c1=O [Compound I-17, ethyl 7-chloro-1-(4-(3,4-dimethylphenoxyl)phenyl)-6-fluoro-4-oxy-1,4-dihydroquinoline-3-carboxylate]
- S. aureus inhibition zone (S. aureus): 20 mm
- E. coli activity inhibition zone (E. coli): 29 mm
- MRSA inhibition zone [1]: 7 mm
- B. subtilis inhibition zone (B. subtilis): 11 mm

Compound: CCOC(=O)c1cn(Cc2ccc(Oc3ccc(Cl)cc3)cc2)c2cc(Cl)c(F)cc2c1=O [Compound I-20, ethyl 7-chloro-1-(4-(4-chlorophenoxy)benzyl)-6-fluoro-4-oxy-1,4-dihydroquinoline-3-carboxylate]
- S. aureus inhibition zone (S. aureus): 21 mm
- E. coli activity inhibition zone (E. coli): 24 mm
- MRSA inhibition zone [1]: 10 mm
- B. subtilis inhibition zone (B. subtilis): 12 mm

Compound: CCOC(=O)c1cn(Cc2ccc(Oc3ccccc3C)cc2)c2cc(Cl)c(F)cc2c1=O [Compound I-22, ethyl 7-chloro-1-(4-(2-methylphenoxy)benzyl)-6-fluoro-4-oxy-1,4-dihydroquinoline-3-carboxylate]
- S. aureus inhibition zone (S. aureus): 23 mm
- E. coli activity inhibition zone (E. coli): 30 mm
- MRSA inhibition zone [1]: 14 mm
- B. subtilis inhibition zone (B. subtilis): 18 mm

Compound: O=C(O)c1cn(-c2ccc(Oc3ccc(Cl)cc3)cc2)c2cc(Cl)c(F)cc2c1=O [Compound I-26, 7-chloro-1-(4-(4-chlorophenoxy)phenyl)-6-fluoro-4-oxy-1,4-dihydroquinoline-3-carboxylic acid]
- S. aureus inhibition zone (S. aureus): 29 mm
- E. coli activity inhibition zone (E. coli): 29 mm
- MRSA inhibition zone [1]: 15 mm
- B. subtilis inhibition zone (B. subtilis): 24 mm
- IC50 (lung cancer cells (A549)): > 10 µM
- IC50 [2]: 5 µM
- IC50 [3]: 5 µM

Compound: COc1ccc(Oc2ccc(-n3cc(C(=O)O)c(=O)c4cc(F)c(Cl)cc43)cc2)cc1 [Compound I-28, 7-chloro-1-(4-(4-methoxyphenoxy)phenyl)-6-fluoro-4-oxy-1,4-dihydroquinoline-3-carboxylic acid]
- S. aureus inhibition zone (S. aureus): 29 mm
- E. coli activity inhibition zone (E. coli): 25 mm
- MRSA inhibition zone [1]: 11 mm
- B. subtilis inhibition zone (B. subtilis): 28 mm

Compound: C[C@H]1COc2c(N3CCN(C)CC3)c(F)cc3c(=O)c(C(=O)O)cn1c23 [Control group, levofloxacin hydrochloride, reference compound]
- zone of inhibition at 5000 µg/mL (S. aureus; Staphylococcus aureus, control concentration 5 mg/mL): 26 mm
- zone of inhibition at 5000 µg/mL (E. coli; Escherichia coli, control concentration 5 mg/mL): 25 mm
- zone of inhibition at 5000 µg/mL ([1]; Staphylococcus aureus, MRSA, control concentration 5 mg/mL): 12 mm
- zone of inhibition at 5000 µg/mL (B. subtilis; Bacillus subtilis, control concentration 5 mg/mL): 22 mm

- IC50 (lung cancer cells (A549); Homo sapiens): 3.5 µM
- IC50 ([2]; Homo sapiens): 2.5 µM
- IC50 ([3]; Homo sapiens): 1.5 µM
Compound: CC(=O)O[C@H]1C(=O)[C@@]2(C)[C@H]([C@H](OC(=O)c3ccccc3)[C@]3(O)C[C@H](OC(=O)[C@H](O)[C@@H](NC(=O)c4ccccc4)c4ccccc4)C(C)=C1C3(C)C)[C@]1(OC(C)=O)CO[C@@H]1C[C@@H]2O [Paclitaxel, reference compound]
